Results reported in ChEMBL document CHEMBL1909046, “DrugMatrix in vitro pharmacology data”.
pIC50, pKi: −log10 of the molar value.

Legend:
[1] = biological target: T1, Thromboxane-A synthase (Homo sapiens, UniProt P24557); experiment: biochemical; format: tissue-based, Platelet; conditions: for IC50: platelet; for pIC50: read-out: IC50;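 for all read-outs here: enzyme inhibition assay with PGH2 supplied as substrate; in other assays of this panel Not Active means under 50% inhibition at 10 µM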
T1 sequence (P24557 whole entry): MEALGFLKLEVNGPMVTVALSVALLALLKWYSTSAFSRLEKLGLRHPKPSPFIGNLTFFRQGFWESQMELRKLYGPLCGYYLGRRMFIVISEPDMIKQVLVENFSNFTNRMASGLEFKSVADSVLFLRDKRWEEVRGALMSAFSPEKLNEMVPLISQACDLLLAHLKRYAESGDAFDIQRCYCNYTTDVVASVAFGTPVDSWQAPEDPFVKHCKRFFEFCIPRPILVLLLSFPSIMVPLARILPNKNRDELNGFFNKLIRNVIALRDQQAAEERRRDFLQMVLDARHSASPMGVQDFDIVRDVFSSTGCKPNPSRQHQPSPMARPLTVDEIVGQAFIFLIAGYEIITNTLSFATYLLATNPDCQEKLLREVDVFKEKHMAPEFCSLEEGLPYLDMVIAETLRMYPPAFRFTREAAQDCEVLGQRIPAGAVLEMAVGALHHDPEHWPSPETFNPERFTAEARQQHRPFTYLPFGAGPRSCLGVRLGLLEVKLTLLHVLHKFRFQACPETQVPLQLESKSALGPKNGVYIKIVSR

[2] = biological target: T2, Vasoactive intestinal polypeptide receptor 1 (Homo sapiens, UniProt P32241); format: cell membranes, Membrane; conditions: ht-29; note: in other assays of this panel Not Active means under 50% inhibition at 10 µM
T2 sequence (P32241 whole entry): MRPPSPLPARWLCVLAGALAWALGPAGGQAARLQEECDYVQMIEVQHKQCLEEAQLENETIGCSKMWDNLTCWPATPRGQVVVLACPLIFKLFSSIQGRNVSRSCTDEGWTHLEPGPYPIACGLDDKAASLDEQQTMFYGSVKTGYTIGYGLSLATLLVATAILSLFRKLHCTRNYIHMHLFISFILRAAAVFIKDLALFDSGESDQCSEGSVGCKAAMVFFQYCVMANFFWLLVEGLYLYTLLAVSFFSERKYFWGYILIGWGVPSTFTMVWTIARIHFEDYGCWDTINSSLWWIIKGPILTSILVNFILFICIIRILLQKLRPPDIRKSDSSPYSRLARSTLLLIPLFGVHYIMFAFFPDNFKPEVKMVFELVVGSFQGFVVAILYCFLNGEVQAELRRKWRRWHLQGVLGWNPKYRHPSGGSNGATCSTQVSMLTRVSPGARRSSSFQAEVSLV

[3] = biological target: T3, Alpha-1A adrenergic receptor (Rattus norvegicus, UniProt P43140); experiment: DRUGMATRIX: Alpha-1A adrenergic receptor radioligand binding (ligand: prazosin); format: cell membranes, Wistar, Submaxillary gland, Membrane; conditions: Not Active = under 50% inhibition at 10 µM; for pIC50: read-out: IC50; for pKi: read-out: Ki
T3 sequence (P43140 whole entry): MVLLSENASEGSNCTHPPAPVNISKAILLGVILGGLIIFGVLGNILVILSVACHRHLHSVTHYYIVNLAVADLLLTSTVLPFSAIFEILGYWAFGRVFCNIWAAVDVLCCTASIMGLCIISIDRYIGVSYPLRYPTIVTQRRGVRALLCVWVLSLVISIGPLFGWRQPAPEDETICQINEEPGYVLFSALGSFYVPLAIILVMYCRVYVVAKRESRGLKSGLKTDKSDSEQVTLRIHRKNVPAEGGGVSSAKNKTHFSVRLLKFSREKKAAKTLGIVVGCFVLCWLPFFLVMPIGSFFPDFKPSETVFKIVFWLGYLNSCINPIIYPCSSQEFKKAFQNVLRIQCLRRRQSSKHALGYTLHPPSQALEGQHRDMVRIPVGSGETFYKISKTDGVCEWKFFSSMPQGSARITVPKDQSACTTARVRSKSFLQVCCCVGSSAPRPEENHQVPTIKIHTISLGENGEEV

[4] = biological target: T4, Muscarinic acetylcholine receptor M5 (Homo sapiens, UniProt P08912); format: cell membranes, CHO-K1, Membrane; conditions: for IC50: cho-k1; for all read-outs here: in other assays of this panel Not Active means under 50% inhibition at 10 µM
T4 sequence (P08912 whole entry): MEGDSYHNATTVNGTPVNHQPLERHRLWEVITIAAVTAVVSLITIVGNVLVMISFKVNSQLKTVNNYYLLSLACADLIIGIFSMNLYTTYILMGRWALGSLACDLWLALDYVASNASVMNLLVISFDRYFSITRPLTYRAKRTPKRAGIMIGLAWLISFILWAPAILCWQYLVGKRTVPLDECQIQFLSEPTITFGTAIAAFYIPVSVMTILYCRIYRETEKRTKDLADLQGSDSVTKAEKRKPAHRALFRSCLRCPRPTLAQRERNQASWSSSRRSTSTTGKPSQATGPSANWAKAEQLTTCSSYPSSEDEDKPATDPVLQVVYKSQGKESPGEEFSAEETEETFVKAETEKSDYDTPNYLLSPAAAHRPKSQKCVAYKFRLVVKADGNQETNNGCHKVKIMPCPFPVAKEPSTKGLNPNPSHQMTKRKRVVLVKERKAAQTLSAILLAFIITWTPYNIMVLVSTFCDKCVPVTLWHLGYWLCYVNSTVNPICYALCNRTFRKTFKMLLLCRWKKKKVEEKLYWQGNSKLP

[5] = biological target: T5, Caspase-1 (Homo sapiens, UniProt P29466); parameters: species or system Escherichia coli;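 note: Caspase-1 enzyme inhibition assay with a peptide substrate; in other assays of this panel Not Active means under 50% inhibition at 10 µM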
T5 sequence (P29466 whole entry): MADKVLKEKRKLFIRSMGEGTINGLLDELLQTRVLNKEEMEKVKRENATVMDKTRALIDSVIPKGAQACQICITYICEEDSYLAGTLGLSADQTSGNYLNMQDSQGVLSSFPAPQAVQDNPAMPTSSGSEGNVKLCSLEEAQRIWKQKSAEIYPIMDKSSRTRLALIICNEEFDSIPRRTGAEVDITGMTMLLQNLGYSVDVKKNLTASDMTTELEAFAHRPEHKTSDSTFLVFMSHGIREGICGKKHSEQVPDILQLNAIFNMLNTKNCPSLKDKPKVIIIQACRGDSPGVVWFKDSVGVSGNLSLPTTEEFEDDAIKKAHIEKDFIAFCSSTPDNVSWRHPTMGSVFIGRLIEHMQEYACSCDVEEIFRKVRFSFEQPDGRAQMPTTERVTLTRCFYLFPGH

Row | Compound | IC50 [1] | IC50 [2] | IC50 [3] | IC50 [4] | IC50 [5] | pIC50 [3] | pKi [3] | pIC50 ([4]; read-out: IC50) | pKi ([4]; read-out: Ki) | pIC50 [1]
1 | CC[C@@]1(O)C(=O)OCc2c1cc1n(c2=O)Cc2cc3c(CN(C)C)c(O)ccc3nc2-1 [TOPOTECAN] | Not Active | Not Active | Not Active | Not Active | Not Active | – | – | – | – | –
2 | C#C[C@]1(O)CC[C@H]2[C@@H]3[C@H](C)CC4=C(CCC(=O)C4)[C@H]3CC[C@@]21C [TIBOLONE] | Not Active | Not Active | Not Active | Not Active | Not Active | – | – | – | – | –
3 | CC[C@H](C)[C@@H](CO[C@@H](Cc1ccccc1)C(=O)N[C@@H](CCS(C)(=O)=O)C(=O)OC(C)C)NC[C@@H](N)CS | Not Active | Not Active | Not Active | Not Active | Not Active | – | – | – | – | –
4 | CCN1CCCC1CNC(=O)c1cc(S(N)(=O)=O)ccc1OC (stereo not drawn) [SULPIRIDE] | Not Active | Not Active | Not Active | Not Active | Not Active | – | – | – | – | –
5 | CC[C@H](C)C(=O)O[C@H]1CCC=C2C=C[C@H](C)[C@H](CC[C@@H]3C[C@@H](O)CC(=O)O3)[C@H]21 [MEVASTATIN] | Not Active | Not Active | Not Active | Not Active | Not Active | – | – | – | – | –
6 | C[C@]12CCC(=O)C[C@@H]1CC[C@@H]1[C@@H]2CC[C@]2(C)[C@@H](O)CC[C@@H]12 [STANOLONE] | Not Active | Not Active | Not Active | Not Active | Not Active | – | – | – | – | –
7 | CC(N)C12CC3CC(CC(C3)C1)C2 (stereo not drawn) [RIMANTADINE] | Not Active | Not Active | Not Active | Not Active | Not Active | – | – | – | – | –
8 | Cc1cccc(C)c1NC(=O)C(C)N (stereo not drawn) [TOCAINIDE] | Not Active | Not Active | Not Active | Not Active | Not Active | – | – | – | – | –
9 | CCN(CC)N=O [N-NITROSODIETHYLAMINE] | Not Active | Not Active | Not Active | Not Active | Not Active | – | – | – | – | –
10 | CNCCCC12CCC(c3ccccc31)c1ccccc12 [MAPROTILINE] | Not Active | Not Active | – | – | Not Active | 6.25 | 6.64 | 6.80 | 6.94 | –
11 | CCC(C)(C)C(=O)O[C@H]1C[C@@H](C)C=C2C=C[C@H](C)[C@H](CC[C@@H]3C[C@@H](O)CC(=O)O3)[C@H]21 [SIMVASTATIN] | Not Active | Not Active | Not Active | Not Active | Not Active | – | – | – | – | –
12 | CN1C[C@H](CNC(=O)OCc2ccccc2)C[C@@H]2c3cccc4c3c(cn4C)C[C@H]21 [METERGOLINE] | Not Active | Not Active | – | Not Active | Not Active | 7.02 | 7.42 | – | – | –
13 | CCN(CC)CCNC(=O)c1cc(Cl)c(N)cc1OC [METOCLOPRAMIDE] | Not Active | Not Active | Not Active | Not Active | Not Active | – | – | – | – | –
14 | Cc1ccc(Cl)c(Nc2ccccc2C(=O)O)c1Cl [MECLOFENAMIC ACID] | Not Active | Not Active | Not Active | Not Active | Not Active | – | – | – | – | –
15 | CO[C@@]12[C@H](COC(N)=O)C3=C(C(=O)C(C)=C(N)C3=O)N1C[C@@H]1N[C@@H]12 [MITOMYCIN] | Not Active | Not Active | Not Active | Not Active | Not Active | – | – | – | – | –
16 | Cc1[nH]c(=O)c(C#N)cc1-c1ccncc1 [MILRINONE] | Not Active | Not Active | Not Active | Not Active | Not Active | – | – | – | – | –
17 | O=[As][O-].[Na+] [SODIUM ARSENITE] | Not Active | Not Active | Not Active | Not Active | Not Active | – | – | – | – | –
18 | COC(=O)Nc1nc2ccc(C(=O)c3ccccc3)cc2[nH]1 [MEBENDAZOLE] | Not Active | Not Active | Not Active | Not Active | Not Active | – | – | – | – | –
19 | CCOC(=O)C1=C(C)NC(C)=C(C(=O)OCC)C1c1ccccc1/C=C/C(=O)OC(C)(C)C [LACIDIPINE] | – | Not Active | Not Active | Not Active | Not Active | – | – | – | – | 5.77
20 | O=C(OC[C@H]1O[C@@H](OC(=O)c2cc(O)c(O)c(OC(=O)c3cc(O)c(O)c(O)c3)c2)[C@H](OC(=O)c2cc(O)c(O)c(OC(=O)c3cc(O)c(O)c(O)c3)c2)[C@@H](OC(=O)c2cc(O)c(O)c(OC(=O)c3cc(O)c(O)c(O)c3)c2)[C@@H]1OC(=O)c1cc(O)c(O)c(OC(=O)c2cc(O)c(O)c(O)c2)c1)c1cc(O)c(O)c(OC(=O)c2cc(O)c(O)c(O)c2)c1 [TANNIC ACID] | – | Not Active | Not Active | Not Active | Not Active | – | – | – | – | 6.49
21 | CC#C[C@]1(O)CC[C@H]2[C@@H]3CCC4=CC(=O)CCC4=C3[C@@H](c3ccc(N(C)C)cc3)C[C@@]21C [MIFEPRISTONE] | Not Active | Not Active | Not Active | Not Active | Not Active | – | – | – | – | –
22 | CC(O)C(=O)O (stereo not drawn) [LACTIC ACID] | Not Active | Not Active | Not Active | Not Active | Not Active | – | – | – | – | –
23 | Cc1ccnc(NS(=O)(=O)c2ccc(N)cc2)n1 [SULFAMERAZINE] | Not Active | Not Active | Not Active | Not Active | Not Active | – | – | – | – | –
24 | CC(C)(C)NC[C@H](O)COc1cccc2c1CCCC2=O [LEVOBUNOLOL] | Not Active | Not Active | Not Active | Not Active | Not Active | – | – | – | – | –
25 | CCOc1cc(N)c(Cl)cc1C(=O)NCC1CN(Cc2ccc(F)cc2)CCO1 (stereo not drawn) [MOSAPRIDE] | Not Active | Not Active | Not Active | Not Active | Not Active | – | – | – | – | –
26 | CC(=O)O[C@]1(C(C)=O)CC[C@H]2[C@@H]3C[C@H](C)C4=CC(=O)CC[C@]4(C)[C@H]3CC[C@@]21C [MEDROXYPROGESTERONE ACETATE] | Not Active | Not Active | Not Active | Not Active | Not Active | – | – | – | – | –
